target: T1, ATM protein immunoprecipitated from HeLa cell nuclear extract (Homo sapiens, UniProt Q13315); test: In vitro ATM inhibition assay (phosphorylation of GSTp53N66 on serine 15, chemiluminescent detection); type: biochemical; conditions: read-out: IC50 values (the concentration at which 50% of the enzyme activity is inhibited), ATM inhibition; note: tested normally from 100 µM down to 0.1 nM
T1 construct: ATM protein was immunoprecipitated from HeLa cell nuclear extract; endogenous in cells; host or cells: HeLa cell nuclear extract (immunoprecipitated with rabbit polyclonal anti-ATM antiserum)
T1 sequence (Q13315 whole entry): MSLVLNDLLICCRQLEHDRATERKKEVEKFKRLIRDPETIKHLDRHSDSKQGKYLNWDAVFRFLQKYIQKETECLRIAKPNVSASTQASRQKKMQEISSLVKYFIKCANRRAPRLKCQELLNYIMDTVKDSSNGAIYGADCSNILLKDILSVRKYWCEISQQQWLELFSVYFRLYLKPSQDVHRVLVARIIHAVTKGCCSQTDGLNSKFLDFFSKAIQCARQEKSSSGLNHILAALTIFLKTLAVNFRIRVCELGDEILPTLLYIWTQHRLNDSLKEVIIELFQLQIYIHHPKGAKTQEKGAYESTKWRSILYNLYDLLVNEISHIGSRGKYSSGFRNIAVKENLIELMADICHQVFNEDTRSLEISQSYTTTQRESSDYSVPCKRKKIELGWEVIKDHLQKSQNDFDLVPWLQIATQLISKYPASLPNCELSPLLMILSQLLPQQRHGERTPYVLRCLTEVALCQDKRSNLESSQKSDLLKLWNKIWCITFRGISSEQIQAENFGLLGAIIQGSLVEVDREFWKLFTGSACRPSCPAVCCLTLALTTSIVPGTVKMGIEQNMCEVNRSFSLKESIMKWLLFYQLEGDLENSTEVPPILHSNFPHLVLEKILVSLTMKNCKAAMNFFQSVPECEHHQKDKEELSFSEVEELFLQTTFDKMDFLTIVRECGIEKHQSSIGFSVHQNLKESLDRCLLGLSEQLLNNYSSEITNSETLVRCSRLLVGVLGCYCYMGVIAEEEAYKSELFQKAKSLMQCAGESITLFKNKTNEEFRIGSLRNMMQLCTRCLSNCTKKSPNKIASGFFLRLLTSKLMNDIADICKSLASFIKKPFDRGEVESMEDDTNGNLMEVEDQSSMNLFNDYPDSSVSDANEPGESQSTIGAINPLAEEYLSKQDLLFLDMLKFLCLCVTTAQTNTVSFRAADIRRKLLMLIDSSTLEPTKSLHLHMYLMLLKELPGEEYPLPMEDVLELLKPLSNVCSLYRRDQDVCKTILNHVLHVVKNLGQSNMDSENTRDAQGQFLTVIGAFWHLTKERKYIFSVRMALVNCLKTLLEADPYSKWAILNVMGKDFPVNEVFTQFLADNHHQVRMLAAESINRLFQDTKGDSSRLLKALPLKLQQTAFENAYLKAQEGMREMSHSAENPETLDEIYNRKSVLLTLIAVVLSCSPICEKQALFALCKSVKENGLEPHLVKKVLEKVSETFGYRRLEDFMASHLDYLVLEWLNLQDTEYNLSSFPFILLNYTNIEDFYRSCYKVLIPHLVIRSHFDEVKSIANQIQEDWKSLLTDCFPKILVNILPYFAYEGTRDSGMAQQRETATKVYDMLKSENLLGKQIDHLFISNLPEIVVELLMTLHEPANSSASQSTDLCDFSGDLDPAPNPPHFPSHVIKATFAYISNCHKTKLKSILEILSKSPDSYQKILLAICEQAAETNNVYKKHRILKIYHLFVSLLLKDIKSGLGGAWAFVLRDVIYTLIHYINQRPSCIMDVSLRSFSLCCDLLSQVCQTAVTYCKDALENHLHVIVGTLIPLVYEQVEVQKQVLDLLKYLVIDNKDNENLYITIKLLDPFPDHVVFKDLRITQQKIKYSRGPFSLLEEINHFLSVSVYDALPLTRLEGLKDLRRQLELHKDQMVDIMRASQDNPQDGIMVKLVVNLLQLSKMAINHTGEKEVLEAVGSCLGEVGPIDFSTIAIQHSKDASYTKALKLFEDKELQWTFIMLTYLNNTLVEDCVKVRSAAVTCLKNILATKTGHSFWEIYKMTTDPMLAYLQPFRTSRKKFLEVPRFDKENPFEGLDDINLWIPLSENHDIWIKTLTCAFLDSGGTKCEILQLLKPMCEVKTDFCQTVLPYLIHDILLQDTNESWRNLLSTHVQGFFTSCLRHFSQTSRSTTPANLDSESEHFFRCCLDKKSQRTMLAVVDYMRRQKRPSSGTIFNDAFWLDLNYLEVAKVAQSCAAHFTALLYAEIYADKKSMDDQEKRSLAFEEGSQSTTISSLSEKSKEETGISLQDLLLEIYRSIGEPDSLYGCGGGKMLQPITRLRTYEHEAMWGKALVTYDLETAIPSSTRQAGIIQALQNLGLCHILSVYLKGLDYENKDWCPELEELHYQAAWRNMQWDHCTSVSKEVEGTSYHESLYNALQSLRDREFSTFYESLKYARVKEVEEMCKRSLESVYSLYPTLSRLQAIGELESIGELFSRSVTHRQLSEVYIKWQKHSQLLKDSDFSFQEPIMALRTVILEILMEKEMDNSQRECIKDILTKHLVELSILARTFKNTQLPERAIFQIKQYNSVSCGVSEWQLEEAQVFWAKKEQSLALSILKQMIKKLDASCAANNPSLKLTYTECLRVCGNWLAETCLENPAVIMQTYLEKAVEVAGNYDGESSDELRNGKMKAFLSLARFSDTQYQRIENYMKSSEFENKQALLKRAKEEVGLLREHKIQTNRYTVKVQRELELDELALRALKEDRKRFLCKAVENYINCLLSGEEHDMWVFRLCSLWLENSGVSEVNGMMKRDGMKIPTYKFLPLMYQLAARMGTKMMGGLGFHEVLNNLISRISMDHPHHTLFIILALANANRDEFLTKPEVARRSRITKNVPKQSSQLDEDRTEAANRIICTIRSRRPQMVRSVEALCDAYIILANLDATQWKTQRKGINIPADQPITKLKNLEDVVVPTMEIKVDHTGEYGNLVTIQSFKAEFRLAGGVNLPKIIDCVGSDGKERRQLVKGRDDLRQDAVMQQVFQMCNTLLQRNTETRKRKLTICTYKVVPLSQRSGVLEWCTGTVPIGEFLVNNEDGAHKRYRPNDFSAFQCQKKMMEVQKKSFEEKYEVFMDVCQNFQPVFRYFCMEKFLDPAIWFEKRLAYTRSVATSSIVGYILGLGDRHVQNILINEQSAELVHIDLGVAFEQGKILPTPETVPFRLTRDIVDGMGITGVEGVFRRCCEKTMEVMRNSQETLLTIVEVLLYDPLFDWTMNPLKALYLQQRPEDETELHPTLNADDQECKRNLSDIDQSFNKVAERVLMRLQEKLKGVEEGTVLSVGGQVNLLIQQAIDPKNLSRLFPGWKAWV
Procedure, shortened: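 Immunoprecipitated HeLa nuclear ATM (C-terminal anti-sera) with GSTp53N66 substrate in Hepes pH 7.4 buffer with MgCl2/MnCl2; inhibitor preincubated 10 min at 37 °C, then Na-ATP added, 1 h at 37 °C.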

IC50, < 200 nM:
O=c1cc(-c2cccc3c2Sc2ccc(S(=O)(=O)NC(CO)CO)cc2C3)oc(N2CCOCC2)c1 [Compound 466]
NC(=O)C1CCN(C(=O)COc2ccc3c(c2)Cc2cccc(-c4cc(=O)cc(N5CCOCC5)o4)c2S3)CC1 [Compound 509]
CC(C)(C)OC(=O)N1CCN(C(=O)c2ccc3c(c2)Sc2cccc(-c4cc(=O)cc(N5CCOCC5)o4)c2S3)CC1 [Compound 16]
O=C(CCN1CCCN(CCO)CC1)Nc1ccc2c(c1)Sc1cccc(-c3cc(=O)cc(N4CCOCC4)o3)c1S2 [Compound 129]
CC(=O)OCC(=O)Nc1ccc2c(c1)Sc1cccc(-c3cc(=O)cc(N4CCOCC4)o3)c1S2 [Compound 42]
O=C(COc1ccc2c(c1)Sc1cccc(-c3cc(=O)cc(N4CCOCC4)o3)c1S2)N(CCO)CCO [Compound 444]
O=c1cc(-c2cccc3c2Sc2ccc(S(=O)(=O)N4CCCC4)cc2C3)oc(N2CCOCC2)c1 [Compound 468]
NCCNCCC(=O)Nc1ccc2c(c1)Sc1cccc(-c3cc(=O)cc(N4CCOCC4)o3)c1S2 [Compound 97]
O=C(c1ccc2c(c1)Sc1cccc(-c3cc(=O)cc(N4CCOCC4)o3)c1S2)N1CCN(c2ncccn2)CC1 [Compound 13]
CCCCNCCCN1c2ccccc2Sc2c(-c3cc(=O)cc(N4CCOCC4)o3)cccc21 [Compound 245]
CCCNCCOc1ccc2c(c1)Sc1cccc(-c3cc(=O)cc(N4CCOCC4)o3)c1S2 [Compound 383]
CCOCCCNCCCN1c2ccccc2Sc2c(-c3cc(=O)cc(N4CCOCC4)o3)cccc21 [Compound 286]
O=c1cc(-c2cccc3c2Sc2ccccc2N3CCCN2CCCCCC2)oc(N2CCOCC2)c1 [Compound 260]
O=C(CN1CCN(CCOCCO)CC1)Nc1ccc2c(c1)Cc1cccc(-c3cc(=O)cc(N4CCOCC4)o3)c1S2 [Compound 340]
O=C(CNCC1CCCO1)Nc1ccc2c(c1)Sc1cccc(-c3cc(=O)cc(N4CCOCC4)o3)c1S2 (stereo not drawn) [Compound 68]
O=C(CN1CCCCC1)Nc1ccc2c(c1)Sc1cccc(-c3cc(=O)cc(N4CCOCC4)o3)c1S2 [Compound 52]
O=C(COc1ccc2c(c1)Sc1cccc(-c3cc(=O)cc(N4CCOCC4)o3)c1S2)N1CCSCC1 [Compound 417]
O=c1cc(-c2cccc3c2Sc2ccc(S(=O)(=O)NCCc4cnc[nH]4)cc2C3)oc(N2CCOCC2)c1 [Compound 465]

— patent US7429660B2, “ATM inhibitors” (Kudos Pharmaceuticals Limited, priority 2003, dated 2008)
